Data: patent US20160193211A1, “COMBINATIONS OF A BTK INHIBITOR AND FLUOROURACIL FOR TREATING CANCERS” (priority 2013, published 2016)

Tests used:
[1] = test system: HCT116 overexpressing p65BTK (HCT116p65BTK); details: 200 μM 5FU, 72 hours
[2] = test system: HCT116p53KO xenografts; test: In vivo treatment of drug-resistant xenografts; details: for average volume of the tumor masses: after 28 days, ibrutinib 25 mpk oral gavage once a day 5 days a week, 5FU 60 mg/kg i.p. twice a week
[3] = test system: HCT116 xenografts; test: In vivo treatment of drug-sensitive xenografts; details: for average volume of the tumor masses: after 28 days; for average volume of the tumor masses / significance of difference in tumor size vs vehicle-treated (untreated) group: 5FU 60 mpk
[4] = test system: HCT116 cells; test: Photographs of cells at 72 hours of incubation (FIG. 5b); details: 10 μM 5FU or 20 μM ibrutinib
[5] = test system: SW480 colon cancer cells; test: Cell viability, calcein assay (FIG. 6); type: cell-based; details: ibrutinib 20 μM with 5FU 200 μM or oxaliplatin 20 μM; oxaliplatin 20 μM alone; 72 hs
Description: At the end of the treatment cell viability was evaluated by calcein assay.

[6] = test system: HCT116p53KO, SW480, DLD-1 and HCT116 colon carcinoma cell lines; test: In vitro cell proliferation assay (short term, CellTiter 96 AQueous); type: cell-based; details: ibrutinib 0 to 10 μM, up to 72 h
[7] = test system: HCT116p53KO, SW480, HT-29, HCT116 and RKO colon carcinoma cell lines; test: Cell viability, calcein assay, ibrutinib alone (FIG. 15); type: cell-based; details: 72 hs

Row | SMILES | viability: response to the cytotoxic effect of 5FU [1] | average volume of the tumor masses [2] | significance of reduction in tumor volume vs the untreated group ([2]; ibrutinib 25 mpk, 5FU 60 mpk, end of treatment (FIG. 9b)) | average volume of the tumor masses ([3]; ibrutinib 25 mpk) | average volume of the tumor masses ([3]; ibrutinib 50 mpk) | significance of difference in tumor size vs vehicle-treated (untreated) group ([3]; ibrutinib 25 mpk) | percentage of proliferating (Ki67-positive) cells compared to vehicle or ibrutinib alone ([3]; ibrutinib 25 mpk, 5FU 60 mpk (FIG. 12b)) | significance of difference in tumor size vs vehicle-treated (untreated) group ([3]; ibrutinib 50 mpk) | percentage of proliferating (Ki67-positive) cells compared to vehicle or ibrutinib alone ([3]; ibrutinib 50 mpk, 5FU 60 mpk (FIG. 13b)) | toxicity seen in photographs, drugs used singularly [4] | reversion of drug resistance (viability) [5] | capacity of the cells to proliferate [6] | toxicity by cell type ([7]; highest concentration of ibrutinib (range 0 to 30 μM)) | viability ([7]; ibrutinib up to 20 μM, all cell lines) | anti-tumoral effect (tumor volume vs untreated group) ([2]; ibrutinib 50 mpk alone (FIG. 10b)) | growth-reducing and anti-proliferative effect on sensitive xenografts ([3]; ibrutinib alone, 25 or 50 mpk)
1 | O=c1[nH]cc(F)c(=O)[nH]1 [5FU, 5-fluoro-1H,3H-pyrimidine-2,4-dione] | become resistant to the cytotoxic effect of 5FU | ≈ 530 mm^3 | not significant | ≈ 226 mm^3 | ≈ 226 mm^3 | significant | significantly reduces the percentage of proliferating cells | significant | significantly reduces the percentage of proliferating cells | no toxicity is evident | – | – | – | – | – | –
2 | O=C(O)C(=O)O.[NH-][C@@H]1CCCC[C@H]1[NH-].[Pt+2] [oxaliplatin] | – | – | – | – | – | – | – | – | – | – | Reversion of resistance was not obtained | – | – | – | – | –
3 | C=CC(=O)N1CCC[C@@H](n2nc(-c3ccc(Oc4ccccc4)cc3)c3c(N)ncnc32)C1 [ibrutinib, 1-[(3R)-3-[4-amino-3-(4-phenoxyphenyl)pyrazolo[3,4-d]pyrimidin-1-yl]piperidin-1-yl]prop-2-en-1-one] | – | ≈ 760 mm^3 | – | ≈ 347 mm^3 | ≈ 372 mm^3 | not statistically significant | – | not statistically significant | – | no toxicity is evident | – | does not alter the capacity of the cells to proliferate | preferentially toxic for 5FU drug-resistant, p53-null | decreases the viability in a dose-dependent manner | has an anti-tumoral effect on its own | by itself is ineffective in these kind of tumors
